{"source": "patent US6667025B2", "about": "(Mitsubishi Pharma Corporation, priority 1997, dated 2003)", "key": {"[1]": {"system": "skin allograft, WKAH donor and F344 recipients", "type": "in vivo", "from_the_text": "Two MHC-incompatible rat strains were selected, WKAH donor (RT1^k) and F344 recipients (RT1^IV1). Full-thickness skin grafts (2.0×2.0 cm square) were transplanted to the lateral thorax of recipients and wrapped with sterile, bactericidal gauze. The chest was then wrapped with an elastic bandage. Five days after transplantation, the wraps were removed and the grafts inspected daily for rejection. Rejection was defined as more than 90% necrosis of graft epithelium."}, "[2]": {"system": "CD3-positive T cells and CD45RA or A/B-positive B cells", "experiment": "Lymphocyte contents of blood and lymphoid tissues by two color flow cytometry", "type": "in vivo, rat", "method": "The lymphocyte contents of peripheral blood and spleen in FTY720-treated intact or allografted rats were analyzed by two color flow cytometry using anti-rat CD3 and anti-rat CD45RA or A/B monoclonal antibodies (21). Lymphocytes were stained with FITC-conjugated anti-CD3 (clone: 1F4, Caltag Laboratories, South San Fransisco, Calif.) (45) and phycoerythrin-conjugated anti-CD45RA or A/B (clone:OX-33, Pharmingen, La Jolla, Calif.) (46) monoclonal antibodies. The T cell and B cell contents were determined by two-color flow cytometry analysis using a flow cytometer (EPICS-XL; Coulter Co.).\n(§1) In dogs and monkeys, as well as rats, oral administration with FTY720 also decreases the number of circulating lymphocytes in peripheral blood. The reduction of the number of T cells was especially remarkable. Withdrawal of FTY720 treatment recovered the number of lymphocytes in peripheral blood to the normal level within 2 weeks."}, "[3]": {"system": "lymphocytes", "experiment": "Numbers of lymphocytes in blood, spleen, mesenteric lymph nodes and Peyer's patches in vivo", "design": "species or system rat", "details": "24 hours", "method": "FTY720 at 0.1 and 1 mg/kg were administered orally to 6 week-old male F344 rats. At 3, 12, 24 hours after administration, peripheral blood, spleen, mesenteric lymph nodes, and Peyer's patches were removed and the lymphocyte numbers of these tissues were measured by using a flow cytometer, as known in the art (EPICS XL)."}, "[4]": {"system": "rat HEV cell lines", "experiment": "Adhesion of rat lymphocytes to HEV cells in vitro", "type": "cell-based", "method": "After the labeling with calcein-AM, the lymphocytes were washed three times with ice-cold RPMI 1640 medium. […] After incubation, the plates were turned upside down and kept for 30 min to remove HEV-nonadherent cells. Calcein pre-labeled lymphocytes adhered to HEV monolayer were lysed by adding distilled water containing 1% nonidet P-40 and the developed fluorescence was measured at 485/530 nm with fluorescence microplate reader (CytoFluor 2350)."}, "[5]": {"system": "male F344 rat lymphocytes in lymphoid tissues", "experiment": "Homing of transfused male lymphocytes in female rats (SRY PCR)", "type": "in vivo", "details": "0.1 or 1 mg/kg oral 2.5 h before transfusion; 30 min after transfusion", "method": "The decrease in circulating lymphocytes by FTY720 is due to the acceleration of lymphocyte homing to mesenteric and peripheral lymph nodes and Peyer's patches (FIGS. 13A-13D). For this experiment, after 2.5 h of administering FTY720 at 0.1 mg/kg or 1 mg/kg orally to female F344 rats, lymphocytes from male F344 rat were transfused intravenously into the rats. Thirty minutes after the transfusion, the peripheral blood, spleen, mesenteric lymph nodes, axillary lymph nodes, Peyer's patches, liver, and lung were removed. PCR amplification of SRY-1 gene, which is Y-chromosome specific, detected male lymphocytes in the tissue samples. The PCR primer sequences for SRY amplification were taken from a previous report (47). […]\nAn aliquot (10 μl) of the PCR products was electrophoresed on 2.5% agarose gel and the amplified DNA-fragments stained with SYBR Green I (Molecular Probes). The fluorescence intensity of the specific bands was visualized and measured by a fluorescence image analyzer (Fluor Imager 575, Molecular Dynamics). The number of male cells in 10^6 female cells, calculated with a standard curve made from a control amplification of SRY from a standard DNA extracted from 10^6 […], is indicated for each tissue noted in FIGS. 13A-13D."}, "[6]": {"system": "cardiac allograft, WKAH donors and ACI recipients", "experiment": "Heterotopic cardiac allograft survival, MHC-incompatible rat strains", "type": "in vivo"}, "[7]": {"system": "(LEW×BN)F1 recipients injected with LEW spleen cells", "experiment": "Lethal GvHR in cyclophosphamide-pretreated recipients", "type": "in vivo, rat", "method": "To examine the effect of FTY720 in preventing the lethal GvHR, splenic lymphocytes from LEW donor rats (1×10^8 spleen cells) were injected intravenously into cyclophosphamide-pretreated (LEW×BN)F1 recipients. Cyclophosphamide (Shionogi Co. Ltd; Osaka, Japan) was given at a 200 mg/kg dose."}, "[8]": {"system": "T cell region of spleen", "experiment": "T cell region of spleen in vivo"}, "[9]": {"system": "circulating lymphocytes", "experiment": "Circulating lymphocytes in peripheral blood of dogs", "type": "in vivo, dog", "details": "oral", "from_the_text": "as §1"}, "[10]": {"system": "IL-2 production", "details": "same concentration range (up to 1000 nM); cited from earlier work"}, "[11]": {"system": "circulating lymphocytes", "experiment": "Circulating lymphocytes in peripheral blood of monkeys", "type": "in vivo, monkey", "details": "oral", "from_the_text": "as §1"}, "[12]": {"system": "skin allograft, LEW donor and F344 recipient", "experiment": "Rat skin allograft survival, MHC-compatible strains", "type": "in vivo", "details": "data not shown"}}}
{"smiles": "CCCCCCCCc1ccc(CCC(N)(CO)CO)cc1.Cl", "note": "[FTY720, 2-amino-2[2-(4-octylphenyl)ethyl]propane-1,3-diol hydrochloride]", "values": [{"measurement": "median survival time (MST) of skin graft", "setting": "[1]; 10 mg/kg for 14 days", "result": 27.0, "unit": "days"}, {"measurement": "oral dose that significantly prolonged skin graft survival", "setting": "[1]; oral, WKAH to F344 rats", "result": "≥ 0.1", "unit": "mg/kg"}, {"measurement": "renal toxicity or other toxic signs", "setting": "[1]; rat, in vivo, po, 10 mg/kg", "result": "without renal toxicity or other toxic signs"}, {"measurement": "number of bone marrow cells, thymocytes, polymorphonuclear cells", "setting": "[2]; data not shown", "result": "did not effect"}, {"measurement": "number of T cells and B cells in spleen, thoracic duct, peripheral blood", "setting": "[2]; oral 1 mg/kg", "result": "decrease"}, {"measurement": "numbers of T cells and B cells in mesenteric and peripheral lymph nodes", "setting": "[2]; oral 1 mg/kg", "result": "significantly increased"}, {"measurement": "time to recovery of peripheral blood lymphocytes to normal level after withdrawal", "setting": "[2]; withdrawal of FTY720 treatment", "result": "≤ 2", "unit": "weeks"}, {"measurement": "numbers of T cells and B cells in peripheral blood", "setting": "[2]; within 6 hours after oral 0.1 to 10 mg/kg", "result": "dramatically decreased"}, {"measurement": "Number of lymphocytes, Peyer's patches", "setting": "[3]; 0.1 mg/kg p.o.", "result": "551.5 ± 103.5 × 10^4 cells/tissue"}, {"measurement": "Number of lymphocytes, mesenteric lymph nodes", "setting": "[3]; 0.1 mg/kg p.o.", "result": "421.8 ± 27.4 × 10^5 cells/tissue"}, {"measurement": "Number of lymphocytes, peripheral blood", "setting": "[3]; 0.1 mg/kg p.o.", "result": "1071.9 ± 59.3", "unit": "cells/μL"}, {"measurement": "Number of lymphocytes, spleen", "setting": "[3]; 0.1 mg/kg p.o.", "result": "652.3 ± 31.2 × 10^5 cells/tissue"}, {"measurement": "Number of lymphocytes, Peyer's patches", "setting": "[3]; 1 mg/kg p.o.", "result": "628.8 ± 61.1 × 10^4 cells/tissue"}, {"measurement": "Number of lymphocytes, mesenteric lymph nodes", "setting": "[3]; 1 mg/kg p.o.", "result": "434.3 ± 33.2 × 10^5 cells/tissue"}, {"measurement": "Number of lymphocytes, peripheral blood", "setting": "[3]; 1 mg/kg p.o.", "result": "667.2 ± 199.8", "unit": "cells/μL"}, {"measurement": "Number of lymphocytes, spleen", "setting": "[3]; 1 mg/kg p.o.", "result": "538.0 ± 74.1 × 10^5 cells/tissue"}, {"measurement": "Fluorescence intensity at 485/530, mean ± SE (n = 6)", "setting": "[4]; Experiment 1, HEV cells pretreated 3 hours with 1 nmol/L", "result": "1215.7 ± 191.2"}, {"measurement": "Fluorescence intensity at 485/530, mean ± SE (n = 6)", "setting": "[4]; Experiment 1, HEV cells pretreated 3 hours with 10 nmol/L", "result": "2926.0 ± 196.4"}, {"measurement": "Fluorescence intensity at 485/530, mean ± SE (n = 6)", "setting": "[4]; Experiment 1, HEV cells pretreated 3 hours with 100 nmol/L", "result": "2510.2 ± 118.8"}, {"measurement": "Fluorescence intensity at 485/530, mean ± SE (n = 6)", "setting": "[4]; Experiment 2, lymphocytes pretreated 3 hours with 100 nmol/L", "result": "1945.7 ± 5.2"}, {"measurement": "Fluorescence intensity at 485/530, mean ± SE (n = 6)", "setting": "[4]; FTY720 1 nmol/L present", "result": "2059.2 ± 112.6"}, {"measurement": "Fluorescence intensity at 485/530, mean ± SE (n = 6)", "setting": "[4]; FTY720 10 nmol/L present", "result": "2107.2 ± 106.5"}, {"measurement": "Fluorescence intensity at 485/530, mean ± SE (n = 6)", "setting": "[4]; FTY720 100 nmol/L present", "result": "2252.0 ± 70.8"}, {"measurement": "Fluorescence intensity at 485/530, mean ± SE (n = 6)", "setting": "[4]; FTY720 1000 nmol/L present", "result": "2383.2 ± 115.2"}, {"measurement": "concentration that enhanced adhesion of calcein-prelabeled lymphocytes to HEV", "setting": "[4]; in vitro, 120 min", "result": "≥ 1", "unit": "nmol/L"}, {"measurement": "pre-labeled lymphocytes in peripheral lymph nodes, Peyer's patch, mesenteric lymph nodes", "setting": "[5]", "result": "accelerated lymphocyte homing"}, {"measurement": "pre-labeled lymphocytes in spleen", "setting": "[5]", "result": "reduction"}, {"measurement": "MST of cardiac allograft", "setting": "[6]; 0.1 mg/kg for 14 days", "result": 20.0, "unit": "days"}, {"measurement": "MST of cardiac allograft", "setting": "[6]; 0.3 mg/kg for 14 days", "result": 21.0, "unit": "days"}, {"measurement": "MST of cardiac allograft", "setting": "[6]; 1 mg/kg for 14 days", "result": 25.5, "unit": "days"}, {"measurement": "MST of cardiac allograft", "setting": "[6]; 3 mg/kg for 14 days", "result": 29.5, "unit": "days"}, {"measurement": "MST of cardiac allograft", "setting": "[6]; 10 mg/kg for 14 days", "result": 58.5, "unit": "days"}, {"measurement": "long-term or indefinite cardiac graft survival", "setting": "[6]; 10 mg/kg, in three out of eight recipient rats", "result": "more than 100 days"}, {"measurement": "dose that significantly prolonged cardiac allograft survival", "setting": "[6]; vs control", "result": "≥ 0.1", "unit": "mg/kg"}, {"measurement": "survival of recipient rats", "setting": "[7]; 0.3 mg/kg, four out of five rats, without GvHR-associated symptoms", "result": "more than 60 days"}, {"measurement": "GvHR-associated symptoms", "setting": "[7]; oral 0.1 mg/kg for 30 days", "result": "prevented the development of GvHR-associated symptoms"}, {"measurement": "MST of recipient rats", "setting": "[7]; oral 0.1 mg/kg for 30 days", "result": 50.0, "unit": "days"}, {"measurement": "effect on T cell region of spleen", "setting": "[8]", "result": "atrophy"}, {"measurement": "number of circulating lymphocytes in peripheral blood", "setting": "[9]", "result": "decreases"}, {"measurement": "production of IL-2", "setting": "[10]", "result": "did not inhibit"}, {"measurement": "number of circulating lymphocytes in peripheral blood", "setting": "[11]", "result": "decreases"}, {"measurement": "dose that significantly prolonged skin allograft survival", "setting": "[12]", "result": "≥ 0.03", "unit": "mg/kg"}]}
